Experimental data: patent US10597388B2, “Pyridazinone herbicides” (FMC CORPORATION, priority 2014, dated 2020)

Key:
Assay type in all cases: in vivo
[1] = tested on: waterhemp_RES1 (ALS & Triazine resistant common waterhemp, Amaranthus rudis); experiment: Test E greenhouse herbicide test, postemergence
Procedure, shortened: (§1)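 Greenhouse test, 14–21 d after postemergence treatment of 2–18 cm plants; percent control was assessed visually, 0–100, against untreated plants.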

[2] = tested on: waterhemp_RES2 (ALS & HPPD resistant common waterhemp, Amaranthus rudis); experiment: Test E greenhouse herbicide test, postemergence
Procedure, shortened: as §1

[3] = tested on: waterhemp (common waterhemp, Amaranthus rudis); experiment: Test E greenhouse herbicide test, pre- and postemergence
Procedure, shortened: (§2)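 Visual ratings, 0 for no effect up to 100 for complete control, were taken relative to controls 14 to 21 d after greenhouse treatment. Applications used a surfactant-containing non-phytotoxic solvent formulation, sprayed either preemergence on silt loam-sown seed or postemergence on 1- to 4-leaf plants 2-18 cm tall in peat-based potting medium.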

[4] = tested on: Italian ryegrass (Lolium multiflorum); experiment: as above
Procedure, shortened: as §2

[5] = tested on: dayflower (Virginia (VA) dayflower, Commelina virginica); experiment: as above
Procedure, shortened: as §2

[6] = tested on: lambsquarters (Chenopodium album); experiment: as above; conditions: Preemergence
Procedure, shortened: as §2

[7] = tested on: wild poinsettia (Euphorbia heterophylla); experiment: as above
Procedure, shortened: as §2

[8] = tested on: foxtail, green (green foxtail, Setaria viridis); experiment: as above; conditions: Preemergence
Procedure, shortened: as §2

[9] = tested on: corn (Zea mays); experiment: as above
Procedure, shortened: as §2

[10] = tested on: kochia (Kochia scoparia); experiment: as above
Procedure, shortened: as §2

[11] = tested on: velvetleaf (Abutilon theophrasti); experiment: as above; conditions: Preemergence
Procedure, shortened: as §2

[12] = tested on: sandbur (southem sandbur, Cenchrus echinatus); experiment: as above
Procedure, shortened: as §2

[13] = tested on: nutsedge, yellow (yellow nutsedge, Cyperus esculentus); experiment: as above; conditions: Preemergence
Procedure, shortened: as §2

[14] = tested on: beggarticks (hairy beggarticks, Bidens pilosa); experiment: as above
Procedure, shortened: as §2

[15] = 31 g ai/ha, visual, scale 0 no effect to 100 complete control
[16] = 62 g ai/ha, scale 0 to 100 (0 no effect, 100 complete control)
[17] = 125 g ai/ha, scale 0 to 100 (0 no effect, 100 complete control)
[18] = 250 g ai/ha, scale 0 to 100 (0 no effect, 100 complete control)
[19] = 62 g ai/ha, Postemergence, scale 0 to 100 (0 no effect, 100 complete control)
[20] = 62 g ai/ha, Preemergence, scale 0 to 100 (0 no effect, 100 complete control)
[21] = 125 g ai/ha, Postemergence, scale 0 to 100 (0 no effect, 100 complete control)
[22] = 125 g ai/ha, Preemergence, scale 0 to 100 (0 no effect, 100 complete control)
[23] = 250 g ai/ha, Postemergence, scale 0 to 100 (0 no effect, 100 complete control)
[24] = Postemergence, 31 g ai/ha, visual, scale 0 no effect to 100 complete control
[25] = Preemergence, 31 g ai/ha, scale 0 to 100, 0 no effect, 100 complete control
[26] = Preemergence, 250 g ai/ha, visual, scale 0 no effect to 100 complete control
[27] = Preemergence, 125 g ai/ha, visual, scale 0 no effect to 100 complete control
[28] = 31 g ai/ha, scale 0 to 100, 0 no effect, 100 complete control
[29] = 125 g ai/ha, visual, scale 0 no effect to 100 complete control
[30] = 250 g ai/ha, visual, scale 0 no effect to 100 complete control

## CCc1sc2c(C)cc(C)cc2c1-c1c(O)c(C)nn(C)c1=O [Compound 57]
[1]; [15]
  Plant response rating, Waterhemp_RES1: 40
[1]; [16]
  Plant response rating, Waterhemp_RES1: 50
[1]; [17]
  Plant response rating, Waterhemp_RES1: 40
[1]; [18]
  Plant response rating, Waterhemp_RES1: 60
[2]; [15]
  Plant response rating, Waterhemp_RES2: 20
[2]; [16]
  Plant response rating, Waterhemp_RES2: 10
[2]; [17]
  Plant response rating, Waterhemp_RES2: 20
[2]; [18]
  Plant response rating, Waterhemp_RES2: 50
[3]; [19]
  Plant response rating, Waterhemp: 50
[3]; [20]
  Plant response rating, Waterhemp: 75
[3]; [21]
  Plant response rating, Waterhemp: 30
[3]; [22]
  Plant response rating, Waterhemp: 40
[3]; [23]
  Plant response rating, Waterhemp: 75
[3]; [24]
  Plant response rating, Waterhemp: 50
[3]; [25]
  Plant response rating, Waterhemp: 80
[3]; [26]
  Plant response rating, Waterhemp: 80
[4]; [19]
  Plant response rating, Ryegrass, Italian: 0
[4]; [20]
  Plant response rating, Ryegrass, Italian: 35
[4]; [21]
  Plant response rating, Ryegrass, Italian: 20
[4]; [22]
  Plant response rating, Ryegrass, Italian: 65
[4]; [23]
  Plant response rating, Ryegrass, Italian: 50
[4]; [24]
  Plant response rating, Ryegrass, Italian: 0
[4]; [25]
  Plant response rating, Ryegrass, Italian: 10
[4]; [26]
  Plant response rating, Ryegrass, Italian: 80
[5]; [19]
  Plant response rating, Dayflower, VA: 15
[5]; [20]
  Plant response rating, Dayflower, VA: 25
[5]; [21]
  Plant response rating, Dayflower, VA: 35
[5]; [23]
  Plant response rating, Dayflower, VA: 30
[5]; [24]
  Plant response rating, Dayflower, VA: 10
[5]; [25]
  Plant response rating, Dayflower, VA: 0
[5]; [27]
  Plant response rating, Dayflower, VA: 30
[5]; [26]
  Plant response rating, Dayflower, VA: 80
[6]; [16]
  Plant response rating, Lambsquarters: 100
[6]; [28]
  Plant response rating, Lambsquarters: 100
[6]; [29]
  Plant response rating, Lambsquarters: 100
[6]; [30]
  Plant response rating, Lambsquarters: 100
[7]; [19]
  Plant response rating, Poinsettia, Wild: 10
[7]; [20]
  Plant response rating, Poinsettia, Wild: 20
[7]; [21]
  Plant response rating, Poinsettia, Wild: 30
[7]; [22]
  Plant response rating, Poinsettia, Wild: 25
[7]; [23]
  Plant response rating, Poinsettia, Wild: 20
[7]; [24]
  Plant response rating, Poinsettia, Wild: 10
[7]; [25]
  Plant response rating, Poinsettia, Wild: 0
[7]; [26]
  Plant response rating, Poinsettia, Wild: 50
[8]; [16]
  Plant response rating, Foxtail, Green: 20
[8]; [28]
  Plant response rating, Foxtail, Green: 0
[8]; [29]
  Plant response rating, Foxtail, Green: 90
[8]; [30]
  Plant response rating, Foxtail, Green: 100
[9]; [19]
  Plant response rating, Corn: 10
[9]; [20]
  Plant response rating, Corn: 0
[9]; [21]
  Plant response rating, Corn: 15
[9]; [23]
  Plant response rating, Corn: 15
[9]; [24]
  Plant response rating, Corn: 15
[9]; [25]
  Plant response rating, Corn: 0
[9]; [27]
  Plant response rating, Corn: 0
[9]; [26]
  Plant response rating, Corn: 0
[10]; [19]
  Plant response rating, Kochia: 70
[10]; [20]
  Plant response rating, Kochia: 65
[10]; [21]
  Plant response rating, Kochia: 60
[10]; [23]
  Plant response rating, Kochia: 75
[10]; [24]
  Plant response rating, Kochia: 50
[10]; [25]
  Plant response rating, Kochia: 20
[10]; [27]
  Plant response rating, Kochia: 75
[10]; [26]
  Plant response rating, Kochia: 100
[11]; [16]
  Plant response rating, Velvetleaf: 65
[11]; [17]
  Plant response rating, Velvetleaf: 95
[11]; [28]
  Plant response rating, Velvetleaf: 30
[11]; [30]
  Plant response rating, Velvetleaf: 100
[12]; [19]
  Plant response rating, Sandbur: 60
[12]; [20]
  Plant response rating, Sandbur: 0
[12]; [21]
  Plant response rating, Sandbur: 65
[12]; [22]
  Plant response rating, Sandbur: 30
[12]; [23]
  Plant response rating, Sandbur: 70
[12]; [24]
  Plant response rating, Sandbur: 50
[12]; [25]
  Plant response rating, Sandbur: 0
[12]; [26]
  Plant response rating, Sandbur: 80
[13]; [16]
  Plant response rating, Nutsedge, Yellow: 30
[13]; [17]
  Plant response rating, Nutsedge, Yellow: 60
[13]; [28]
  Plant response rating, Nutsedge, Yellow: 0
[13]; [30]
  Plant response rating, Nutsedge, Yellow: 70
[14]; [19]
  Plant response rating, Beggarticks: 100
[14]; [20]
  Plant response rating, Beggarticks: 100
[14]; [21]
  Plant response rating, Beggarticks: 100
[14]; [23]
  Plant response rating, Beggarticks: 100
[14]; [24]
  Plant response rating, Beggarticks: 100
[14]; [25]
  Plant response rating, Beggarticks: 100
[14]; [27]
  Plant response rating, Beggarticks: 100
[14]; [26]
  Plant response rating, Beggarticks: 100

## Cc1ccc2ccccc2c1-c1c(OC(=O)OC(C)C)c(C)nn(C)c1=O [Compound 72]
[1]; [15]
  Plant response rating, Waterhemp_RES1: 60
[1]; [16]
  Plant response rating, Waterhemp_RES1: 80
[1]; [17]
  Plant response rating, Waterhemp_RES1: 80
[1]; [18]
  Plant response rating, Waterhemp_RES1: 90
[2]; [15]
  Plant response rating, Waterhemp_RES2: 35
[2]; [16]
  Plant response rating, Waterhemp_RES2: 40
[2]; [17]
  Plant response rating, Waterhemp_RES2: 50
[2]; [18]
  Plant response rating, Waterhemp_RES2: 65
[3]; [19]
  Plant response rating, Waterhemp: 65
[3]; [20]
  Plant response rating, Waterhemp: 100
[3]; [21]
  Plant response rating, Waterhemp: 80
[3]; [22]
  Plant response rating, Waterhemp: 100
[3]; [23]
  Plant response rating, Waterhemp: 90
[3]; [24]
  Plant response rating, Waterhemp: 65
[3]; [25]
  Plant response rating, Waterhemp: 90
[3]; [26]
  Plant response rating, Waterhemp: 100
[4]; [19]
  Plant response rating, Ryegrass, Italian: 80
[4]; [20]
  Plant response rating, Ryegrass, Italian: 90
[4]; [21]
  Plant response rating, Ryegrass, Italian: 85
[4]; [22]
  Plant response rating, Ryegrass, Italian: 100
[4]; [23]
  Plant response rating, Ryegrass, Italian: 90
[4]; [24]
  Plant response rating, Ryegrass, Italian: 80
[4]; [25]
  Plant response rating, Ryegrass, Italian: 90
[4]; [26]
  Plant response rating, Ryegrass, Italian: 100
[5]; [19]
  Plant response rating, Dayflower, VA: 65
[5]; [20]
  Plant response rating, Dayflower, VA: 15
[5]; [21]
  Plant response rating, Dayflower, VA: 80
[5]; [22]
  Plant response rating, Dayflower, VA: 50
[5]; [23]
  Plant response rating, Dayflower, VA: 80
[5]; [24]
  Plant response rating, Dayflower, VA: 60
[5]; [25]
  Plant response rating, Dayflower, VA: 0
[5]; [26]
  Plant response rating, Dayflower, VA: 50
[6]; [16]
  Plant response rating, Lambsquarters: 80
[6]; [17]
  Plant response rating, Lambsquarters: 100
[6]; [28]
  Plant response rating, Lambsquarters: 90
[6]; [30]
  Plant response rating, Lambsquarters: 100
[7]; [19]
  Plant response rating, Poinsettia, Wild: 40
[7]; [20]
  Plant response rating, Poinsettia, Wild: 15
[7]; [21]
  Plant response rating, Poinsettia, Wild: 65
[7]; [22]
  Plant response rating, Poinsettia, Wild: 10
[7]; [23]
  Plant response rating, Poinsettia, Wild: 75
[7]; [24]
  Plant response rating, Poinsettia, Wild: 30
[7]; [25]
  Plant response rating, Poinsettia, Wild: 0
[7]; [26]
  Plant response rating, Poinsettia, Wild: 20
[8]; [16]
  Plant response rating, Foxtail, Green: 35
[8]; [17]
  Plant response rating, Foxtail, Green: 65
[8]; [28]
  Plant response rating, Foxtail, Green: 30
[8]; [30]
  Plant response rating, Foxtail, Green: 70
[9]; [19]
  Plant response rating, Corn: 10
[9]; [20]
  Plant response rating, Corn: 0
[9]; [21]
  Plant response rating, Corn: 20
[9]; [22]
  Plant response rating, Corn: 0
[9]; [23]
  Plant response rating, Corn: 30
[9]; [24]
  Plant response rating, Corn: 0
[9]; [25]
  Plant response rating, Corn: 0
[9]; [26]
  Plant response rating, Corn: 0
[10]; [19]
  Plant response rating, Kochia: 98
[10]; [20]
  Plant response rating, Kochia: 35
[10]; [21]
  Plant response rating, Kochia: 90
[10]; [22]
  Plant response rating, Kochia: 60
[10]; [23]
  Plant response rating, Kochia: 90
[10]; [24]
  Plant response rating, Kochia: 70
[10]; [25]
  Plant response rating, Kochia: 25
[10]; [26]
  Plant response rating, Kochia: 98
[11]; [16]
  Plant response rating, Velvetleaf: 40
[11]; [17]
  Plant response rating, Velvetleaf: 80
[11]; [28]
  Plant response rating, Velvetleaf: 50
[11]; [30]
  Plant response rating, Velvetleaf: 90
[12]; [19]
  Plant response rating, Sandbur: 70
[12]; [20]
  Plant response rating, Sandbur: 35
[12]; [21]
  Plant response rating, Sandbur: 75
[12]; [22]
  Plant response rating, Sandbur: 60
[12]; [23]
  Plant response rating, Sandbur: 80
[12]; [24]
  Plant response rating, Sandbur: 60
[12]; [25]
  Plant response rating, Sandbur: 0
[12]; [26]
  Plant response rating, Sandbur: 70
[13]; [16]
  Plant response rating, Nutsedge, Yellow: 20
[13]; [17]
  Plant response rating, Nutsedge, Yellow: 30
[13]; [30]
  Plant response rating, Nutsedge, Yellow: 35
[14]; [19]
  Plant response rating, Beggarticks: 100
[14]; [20]
  Plant response rating, Beggarticks: 80
[14]; [21]
  Plant response rating, Beggarticks: 98
[14]; [22]
  Plant response rating, Beggarticks: 98
[14]; [23]
  Plant response rating, Beggarticks: 98
[14]; [24]
  Plant response rating, Beggarticks: 90
[14]; [25]
  Plant response rating, Beggarticks: 70
[14]; [26]
  Plant response rating, Beggarticks: 100
